Laboratory results: patent US20170266266A1, “Functions of 55 Newfound Proteins and Their Medicinal Application in the Treatment and Prevention of Disease” (priority 2012, published 2017)
Entries after “also recorded” stand apart in the source; their conditions may differ. Where two headings read alike, the source gives them in different places.

Experiments:
[1] = test system: atherosclerosis in New Zealand white rabbit on high fat diet; conditions: for atherosclerosis Grade: individual animals; for high density lipoprotein cholesterin (HDL-C) Increase / high density lipoprotein cholesterin (HDL-C) Increase (%) / high density lipoprotein cholesterin (HDL-C) Wk 0 / high density lipoprotein cholesterin (HDL-C) Wk 19 / ligh density lipoprotein cholesterin (LDL-C) Increase / ligh density lipoprotein cholesterin (LDL-C) Increase (%) / ligh density lipoprotein cholesterin (LDL-C) Wk0 / ligh density lipoprotein cholesterin (LDL-C) Wk 19 / total cholesterol (TC) Increase / total cholesterol (TC) Increase (%) / total cholesterol (TC) Wk0 / total cholesterol (TC) Wk 19 / total triglyceride (TG) Increase / total triglyceride (TG) Increase (%) / total triglyceride (TG) Wk 0 / total triglyceride (TG) Wk 19: serum
Description: New Zealand rabbits were adopted in this animal study and divided into 5 groups. They were high dose, medium dose and low dose of treatment, positive and vehicle control. The treatment groups were given APOAI via auricular vein once a week. […] Positive controls were given Liptor daily by p.o. with a dose of 0.45 mg/kg body weight. […] The study duration was 19 weeks. At the end of study, all animals were sacrificed. […] Lipid content was examined in liver and aorta. And liver index was also determined.
The body weight was between 1.8-2.0 kg. The animals were quarantined for 5-10 days with normal diet before study.
Animals were randomly divided into 5 groups including vehicle control, high dose, medium dose, low dose and positive control group. Ten to 14 rabbits were in one group. Each rabbit was fed with 30 gram of high fat diet followed by 120 gram of normal diet with free access to water.
The frequency of dosing was once a week. Dose was 80, 40, 20 mg/kg body weight respectively. Drug was given by intravenous injection via auricular vein with the volume of 5 mL.
5.1 body weight: body weight of each rabbit was determined once a week.
Resulted blood samples were kept still for 2 hours and then spin with 4,000 rpm for 10 min.
Abdomen cavity was opened. Whole blood was taken from heart. Heart was harvested along with 7 cm of aorta.
The aorta was dissected for 0.5 cm from aortic arch, split longitudinally and then kept in cryo-preservation tube for later lipid analysis. One piece of this sample was fixed in formalin for further pathological analysis.
The weight of liver was determined immediately. Two pieces of specimen were cut from hepatic lobe.
Resulted blood samples were kept still for 2 hours.
The aorta was dissected and opened for 7.5 cm from aortic arch longitudinally. Pictures were taken and atherosclerosis changing was analyzed.

[2] = test system: SK-OV-3-luc ovarian cancer; experiment: Ovarian cancer survival in mice; assay type: in vivo; conditions: group mean, study still ongoing
Source text: Ovarian cancer study has been conducted at Wuxi AppTec under Dr. Yong Cang and the study is still ongoing as of Aug. 4, 2013. However in order to show the comparison mean days of the death of the mice in each group to compare with the positive drug group which has 76.8 days.
Bioluminescent images of RAAS-20120628-SK-OV-3-luc for all groups.
At day 63 after ovarian cancer has started an experiment of Kieu Hoang AFCC TM by oral application of four mice left from the entire group. That means that by day 63 ovarian cancer has already developed. In the beginning we forced the mice to drink without water, therefore the mice died in early stage.

[3] = test system: atherosclerosis in LDLR KO mice; experiment: Efficacy of AFOD RAAS 1 (APOA1) on atherosclerosis, LDLR KO mice; assay type: in vivo

## human Apolipoprotein AI [APOAI]
[1]; High dose
  Lipid content in aorta: HDL-C: 0.111 ± 0.057
  Lipid content in aorta: LDL-C: 0.318 ± 0.05
  Lipid content in aorta: TC: 0.29 ± 0.098
  Lipid content in aorta: TG: 0.402 ± 0.101
  Lipid content in liver: HDL-C: 0.825 ± 0.129
  Lipid content in liver: LDL-C: 2.302 ± 0.054
  Lipid content in liver: TC: 2.841 ± 0.298
  Lipid content in liver: TG: 1.3 ± 0.171
  TG content in liver vs vehicle control: significantly lower
[1]; Low dose
  Lipid content in aorta: HDL-C: 0.092 ± 0.066
  Lipid content in aorta: LDL-C: 0.254 ± 0.078
  Lipid content in aorta: TC: 0.28 ± 0.047
  Lipid content in aorta: TG: 0.337 ± 0.055
  Lipid content in liver: HDL-C: 0.803 ± 0.236
  Lipid content in liver: LDL-C: 1.857 ± 0.559
  Lipid content in liver: TC: 2.95 ± 0.809
  Lipid content in liver: TG: 1.369 ± 0.251
[1]; Middle dose
  Lipid content in aorta: HDL-C: 0.128 ± 0.064
  Lipid content in aorta: LDL-C: 0.307 ± 0.043
  Lipid content in aorta: TC: 0.332 ± 0.135
  Lipid content in aorta: TG: 0.388 ± 0.124
  Lipid content in liver: HDL-C: 0.815 ± 0.249
  Lipid content in liver: LDL-C: 1.407 ± 0.418
  Lipid content in liver: TC: 2.214 ± 0.515
  Lipid content in liver: TG: 1.081 ± 0.31
[1]; after 12 weeks of high fat diet, 1 animal
  liver and aorta of sacrificed animal: no abnormal change
[1]; all treatment groups
  HDL-C vs vehicle control: significantly high
[1]; high dose group
  number of animals of Grade I: Grade I: 0 animal;
  number of animals of Grade II: Grade II: 5 animals;
  number of animals of Grade III: Grade III: 0 animal;
  number of animals of Grade IV: Grade IV: 3 animals.
  atherosclerosis Grade: II (grade II was between 25% to 50%); also recorded: IV (Grade IV was greater than 75%)
[1]; low dose
  TG content in liver vs vehicle control: significantly lower
  liver cellular swelling vs vehicle control: same in low dose group and vehicle control
  liver fat degeneration vs vehicle control: better
  pathological change of aorta vs vehicle control: no significant improvement
[1]; low dose group
  number of animals of Grade I: Grade I: 9 animals;
  number of animals of Grade II: Grade II: 1 animal;
  number of animals of Grade III: Grade III: 0 animal;
  number of animals of Grade IV: Grade IV: 2 animals.
[1]; medium dose
  LDL-C content in liver vs vehicle control: significantly lower
  TC content in liver vs vehicle control: significantly lower
  TG content in liver vs vehicle control: significantly lower
  area of atherosclerosis vs vehicle control: significant less
  liver cellular swelling and fat degeneration vs vehicle control: better
[1]; medium dose group
  number of animals of Grade I: Grade I: 6 animals;
  number of animals of Grade II: Grade II: 2 animals;
  number of animals of Grade III: Grade III: 0 animal;
  number of animals of Grade IV: Grade IV: 0 animal.
  atherosclerosis Grade: I (grade I was less than 25%); also recorded: II (grade II was between 25% to 50%)
[1]; medium dose, endothelium swelling, smooth muscle migrating, foam cell formation
  pathological change of aorta vs vehicle control: better
[1]; rabbit, in vivo
  atherosclerosis change in Arteria carotis: no atherosclerosis change found
  calcification, pathological examination: no calcification found
[1]; High dose (n = 8)
  high density lipoprotein cholesterin (HDL-C) Increase: 3.81 ± 2.025 mmol/L
  high density lipoprotein cholesterin (HDL-C) Increase (%): 322.1%
  high density lipoprotein cholesterin (HDL-C) Wk 0: 1.183 ± 0.149 mmol/L
  high density lipoprotein cholesterin (HDL-C) Wk 19: 4.993 ± 2.018 mmol/L
  ligh density lipoprotein cholesterin (LDL-C) Increase: 13.18 ± 4.053 mmol/L
  ligh density lipoprotein cholesterin (LDL-C) Increase (%): 1432.6%
  ligh density lipoprotein cholesterin (LDL-C) Wk0: 0.92 ± 0.324 mmol/L
  ligh density lipoprotein cholesterin (LDL-C) Wk 19: 14.1 ± 4.188 mmol/L
  total cholesterol (TC) Increase: 10.90 ± 2.66 mmol/L
  total cholesterol (TC) Increase (%): 685.5%
  total cholesterol (TC) Wk0: 1.59 ± 0.48 mmol/L
  total cholesterol (TC) Wk 19: 12.49 ± 2.81 mmol/L
[1]; Low dose (n = 12)
  high density lipoprotein cholesterin (HDL-C) Increase: 3.04 ± 2.019 mmol/L
  high density lipoprotein cholesterin (HDL-C) Increase (%): 431.2%
  high density lipoprotein cholesterin (HDL-C) Wk 0: 0.705 ± 0.246 mmol/L
  high density lipoprotein cholesterin (HDL-C) Wk 19: 3.744 ± 2.14 mmol/L
  ligh density lipoprotein cholesterin (LDL-C) Increase: 6.472 ± 4.468 mmol/L
  ligh density lipoprotein cholesterin (LDL-C) Increase (%): 783.5%
  ligh density lipoprotein cholesterin (LDL-C) Wk0: 0.826 ± 0.279 mmol/L
  ligh density lipoprotein cholesterin (LDL-C) Wk 19: 7.298 ± 4.60 mmol/L
  total cholesterol (TC) Increase: 8.01 ± 4.87 mmol/L
  total cholesterol (TC) Increase (%): 755.6%
  total cholesterol (TC) Wk0: 1.06 ± 0.27 mmol/L
  total cholesterol (TC) Wk 19: 9.07 ± 4.92 mmol/L
  total triglyceride (TG) Increase: 0.482 ± 0.839 mmol/L
  total triglyceride (TG) Increase (%): 61.3%
  total triglyceride (TG) Wk 0: 0.786 ± 0.229 mmol/L
  total triglyceride (TG) Wk 19: 1.267 ± 0.772 mmol/L
[1]; Medium dose (n = 9)
  high density lipoprotein cholesterin (HDL-C) Increase: 3.674 ± 2.413 mmol/L
  high density lipoprotein cholesterin (HDL-C) Increase (%): 548.4%
  high density lipoprotein cholesterin (HDL-C) Wk 0: 0.67 ± 0.207 mmol/L
  high density lipoprotein cholesterin (HDL-C) Wk 19: 4.343 ± 2.439 mmol/L
  ligh density lipoprotein cholesterin (LDL-C) Increase: 5.297 ± 4.373 mmol/L
  ligh density lipoprotein cholesterin (LDL-C) Increase (%): 499.7%
  ligh density lipoprotein cholesterin (LDL-C) Wk0: 1.06 ± 0.298 mmol/L
  ligh density lipoprotein cholesterin (LDL-C) Wk 19: 6.357 ± 4.475 mmol/L
  total cholesterol (TC) Increase: 8.505 ± 5.37 mmol/L
  total cholesterol (TC) Increase (%): 453.0%
  total cholesterol (TC) Wk0: 1.77 ± 0.783 mmol/L
  total cholesterol (TC) Wk 19: 10.28 ± 5.82 mmol/L
  total triglyceride (TG) Increase: 1.488 ± 0.988 mmol/L
  total triglyceride (TG) Increase (%): 226.8%
  total triglyceride (TG) Wk 0: 0.656 ± 0.191 mmol/L
  total triglyceride (TG) Wk 19: 2.144 ± 1.043 mmol/L
[1]; test article given along with high fat diet
  blood lipid parameters: no significant decrease in blood lipid parameters
[1]; treatment group vs vehicle
  liver index: lower in treatment group, but there's no statistical difference found
[1]; treatment groups
  lipid content in aorta vs vehicle control: lower in treatment groups than that in vehicle control but there was no statistical significance
[2]
  Mean Survival Time: 115.8 days
[3]
  reduction and prevention of atherosclerosis: effective in the reduction and prevention of atherosclerosis
